Measurements published in US4937237A, “Phosphinic acid substituted aromatic steroids as inhibitors of steroid 5-60 -reductase” (SmithKline Beckman Corporation, priority 1988, dated 1990).
Read-outs that look alike come from different tables or passages of the source.

Experiments:
[1] = biological target: T1, human steroid 5-α-reductase (Homo sapiens, UniProt P31213); test: Potency in inhibiting human steroid 5-α-reductase from hyperplastic human prostates ([14C]-testosterone conversion, Dixon plot); assay type: biochemical
T1 construct: Frozen human prostates were thawed and minced into small pieces; from tissue; host or cells: hyperplastic human prostate, 140,000×g particulate fraction
T1 sequence (P31213 1-254): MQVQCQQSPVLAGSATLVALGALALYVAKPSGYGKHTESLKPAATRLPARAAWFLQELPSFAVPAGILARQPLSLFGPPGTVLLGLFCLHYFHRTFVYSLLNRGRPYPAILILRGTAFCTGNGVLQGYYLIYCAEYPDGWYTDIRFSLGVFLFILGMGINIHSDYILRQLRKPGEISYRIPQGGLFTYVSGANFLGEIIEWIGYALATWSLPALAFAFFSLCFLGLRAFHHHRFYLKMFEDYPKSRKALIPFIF
Procedure: A compound of the invention, 17β-(N,N-diisopropylcarboxamide)-estr-1,3,5(10)-triene-3-phosphinic acid, was tested for potency in inhibiting human steroid 5-α-reductase using tissue from hyperplastic human prostates. In determining potency in inhibiting the human enzyme, the following procedure was employed:
Frozen human prostates were thawed and minced into small pieces (5 mm^3). The tissue was homogenized in 3 to 5 volumes of 20 mM potassium phosphate buffer, pH 6.5, containing 0.33M sucrose, 1 mM dithiothreitol, and 50 μM NADPH with a Brinkmann Polytron (Sybron Corporation, Westbury, N.Y.). The solution was subjected to sonication for 3 to 5 minutes with a Sonifier (Branson Sonic Power Co.) followed by hand homogenization in a glass-to-glass Dounce homogenizer (Kontes Glass Company, Vineland, N.J.). […]
A constant amount of [^14 C]-testosterone (52 to 55 mCi/mmol, New England Nuclear, Boston, MA) in ethanol and varying amounts of the potential inhibitor in ethanol were deposited in test tubes and concentrated to dryness in a SAVANT Speed Vac. […] The radiochemical content in the bands of the substrate and the products was determined with a BIOSCAN Imaging Scanner (Bioscan, Inc., Washington, D.C.). The percent of recovered radiolabel converted to product was calculated, from which enzyme activity was determined. […]

5-α-Reductase = settings: cited from earlier work; for Ki / Reversibility of inhibition (with Ki): Table I; for Type of inhibition of steroid 5-α-reductase, in words: literature
[2] = test system: human steroid 5-α-reductase; settings: substrate (testosterone), separate experiment

SMILES: CC(C)N(C(=O)[C@H]1CC[C@H]2[C@@H]3CCc4cc([PH](=O)O)ccc4[C@H]3CC[C@]12C)C(C)C [17β-(N,N-Diisopropylcarboxamide)-estr-1,3,5(10)-triene-3-phosphinic Acid]
- Ki [1]: 13 nM
- Potency as inhibitor of human steroid 5-α-reductase, in words ([1]; concluded from low Ki): potent inhibitor

SMILES: C[C@]12CC[C@H]3[C@@H](CCC4=CC(=O)CC[C@@]43C)[C@@H]1CC[C@@H]2C(=O)O [(1)]
- Ki (5-α-Reductase; literature references): 1100 nM
- Reversibility of inhibition (with Ki) (5-α-Reductase; literature references): Reversible

SMILES: CC(=O)C1CCC2C3CC=C=CC(=O)CCC(=O)C3CCC12C (stereo not drawn) [(2)]
- Ki (5-α-Reductase; literature references): 1000 nM
- Reversibility of inhibition (with Ki) (5-α-Reductase; literature references): Irreversible

SMILES: CC(CO)[C@H]1CC[C@H]2[C@@H]3CC[C@H]4C(=[N+]=[N-])C(=O)CC[C@]4(C)[C@H]3CC[C@]12C (stereo partly drawn) [(3)]
- Ki (5-α-Reductase; literature reference, unit inferred): 35 nM
- Reversibility of inhibition (with Ki) (5-α-Reductase; literature references): Irreversible
- Type of inhibition of steroid 5-α-reductase, in words (5-α-Reductase): potent, time-dependent inhibitor

SMILES: CCN(CC)C(=O)[C@H]1CC[C@H]2[C@@H]3CC[C@H]4N(C)C(=O)CC[C@]4(C)[C@H]3CC[C@]12C [(4)]
- Ki (5-α-Reductase; literature references): 5 nM
- Reversibility of inhibition (with Ki) (5-α-Reductase; literature references): Reversible

SMILES: C=C1C[C@@H]2[C@H](CC[C@@]3(C)[C@H]2CC[C@]3(OC(C)=O)C(C)=O)[C@@]2(C)CCC(=O)C=C12 [(5)]
- Ki (5-α-Reductase; literature references): 1250 nM
- Reversibility of inhibition (with Ki) (5-α-Reductase; literature references): Irreversible
- Type of inhibition of steroid 5-α-reductase, in words (5-α-Reductase): time-dependent inactivator

SMILES: C[C@]12CC[C@H]3[C@@H](CCC4=CC(=O)CC[C@@]43C)[C@@H]1CC[C@@H]2O [testosterone]
- Km [2]: 4.5 µM
